ChEMBL document CHEMBL2424579, “Quinazolin-4-one derivatives as selective histone deacetylase-6 inhibitors for the treatment of Alzheimer's disease” (J Med Chem, 2013)
Activity calls are given as the source filed them. No cut-off for these calls is given here.

Tests used:
[1] = target: T1, Amyloid-beta precursor protein (Homo sapiens, UniProt P05067); assay: Inhibition of amyloid beta aggregation (unknown origin) after 4 hrs by thioflavin S assay in absence of Zn2+
[2] = target: T1, Amyloid-beta precursor protein; assay: Inhibition of amyloid beta aggregation (unknown origin) after 4 hrs by thioflavin S assay in presence of Zn2+
[3] = system: PC-12; assay: Induction iof GAP-43 protein expression in rat PC12 cells after 48 hrs by Western blotting analysis; type: functional, cell-based
[4] = system: SH-SY5Y; assay: Increase of synaptic activity in human SH-SY5Y cells after 5 days by fluorescence assay; type: functional, cell-based; conditions: 120 h
[5] = system: SH-SY5Y; assay: Induction of neurite outgrowth in human SH-SY5Y cells after 5 days; type: functional, cell-based; conditions: 120 h
[6] = system: PC-12; assay: Increase of synaptic activity in rat PC12 cells after 5 days by fluorescence assay; type: functional, cell-based; conditions: PC-12, 120 h
[7] = system: SH-SY5Y; assay: Induction of neurite outgrowth in human SH-SY5Y cells at 10 uM after 5 days; type: functional, cell-based
[8] = system: PC-12; assay: Induction of neurite outgrowth in rat PC12 cells after 5 days; type: functional, cell-based; conditions: PC-12, 120 h
[9] = system: PC-12; assay: Induction of neurite outgrowth in rat PC12 cells at 10 uM after 5 days; type: functional, cell-based
[10] = target: T2, Histone deacetylase 11 (Homo sapiens, UniProt Q96DB2); assay: Inhibition of human recombinant HDAC11 expressed in baculovirus/sf9 cells using RHKKAc as substrate
T2 sequence (Q96DB2 whole entry): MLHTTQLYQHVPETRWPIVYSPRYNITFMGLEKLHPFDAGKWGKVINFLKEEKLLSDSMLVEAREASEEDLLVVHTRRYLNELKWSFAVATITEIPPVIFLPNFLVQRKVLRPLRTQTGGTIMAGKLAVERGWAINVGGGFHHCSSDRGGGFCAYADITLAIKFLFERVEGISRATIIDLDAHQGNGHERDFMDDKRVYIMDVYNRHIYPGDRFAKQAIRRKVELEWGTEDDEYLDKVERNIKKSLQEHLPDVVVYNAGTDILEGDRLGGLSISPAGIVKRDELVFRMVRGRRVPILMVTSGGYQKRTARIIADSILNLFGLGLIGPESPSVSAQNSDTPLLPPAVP

[11] = target: T3, Protein deacetylase HDAC6 (Homo sapiens, UniProt Q9UBN7); assay: Inhibition of human recombinant HDAC6 expressed in baculovirus/sf9 cells using RHKKAc as substrate
T3 sequence (Q9UBN7 whole entry): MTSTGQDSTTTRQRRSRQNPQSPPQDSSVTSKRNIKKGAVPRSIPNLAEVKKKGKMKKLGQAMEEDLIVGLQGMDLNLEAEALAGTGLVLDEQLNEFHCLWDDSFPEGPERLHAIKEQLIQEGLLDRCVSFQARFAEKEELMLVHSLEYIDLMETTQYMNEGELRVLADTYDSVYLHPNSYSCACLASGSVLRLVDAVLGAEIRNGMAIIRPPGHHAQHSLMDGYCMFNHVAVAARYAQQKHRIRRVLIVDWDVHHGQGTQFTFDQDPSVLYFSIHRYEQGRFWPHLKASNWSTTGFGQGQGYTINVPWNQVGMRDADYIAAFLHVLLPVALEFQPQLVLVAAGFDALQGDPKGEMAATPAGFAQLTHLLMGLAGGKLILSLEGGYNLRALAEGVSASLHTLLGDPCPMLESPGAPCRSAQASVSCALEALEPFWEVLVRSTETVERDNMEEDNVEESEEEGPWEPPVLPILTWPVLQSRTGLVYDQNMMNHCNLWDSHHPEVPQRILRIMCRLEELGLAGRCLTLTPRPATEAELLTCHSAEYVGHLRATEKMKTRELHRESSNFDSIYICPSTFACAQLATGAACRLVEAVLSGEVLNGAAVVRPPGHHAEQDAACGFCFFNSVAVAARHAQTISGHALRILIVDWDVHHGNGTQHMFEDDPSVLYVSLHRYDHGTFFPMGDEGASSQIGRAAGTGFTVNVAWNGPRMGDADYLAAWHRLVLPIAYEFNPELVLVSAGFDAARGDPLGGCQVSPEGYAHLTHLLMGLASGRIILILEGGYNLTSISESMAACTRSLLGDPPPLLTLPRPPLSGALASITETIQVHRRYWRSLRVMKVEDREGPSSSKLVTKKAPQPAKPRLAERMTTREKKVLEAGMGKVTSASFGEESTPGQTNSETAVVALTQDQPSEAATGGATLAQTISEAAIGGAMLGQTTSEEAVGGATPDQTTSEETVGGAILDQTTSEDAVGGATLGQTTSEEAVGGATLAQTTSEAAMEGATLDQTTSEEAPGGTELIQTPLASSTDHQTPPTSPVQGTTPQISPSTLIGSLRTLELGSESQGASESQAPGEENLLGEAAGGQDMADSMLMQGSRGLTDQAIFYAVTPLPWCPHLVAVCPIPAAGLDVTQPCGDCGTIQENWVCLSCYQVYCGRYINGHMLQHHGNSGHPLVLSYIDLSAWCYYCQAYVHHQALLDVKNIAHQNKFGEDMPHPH

[12] = target: T4, Histone deacetylase 8 (Homo sapiens, UniProt Q9BY41); assay: Inhibition of human recombinant HDAC8 expressed in baculovirus/sf9 cells using RHKAcKAc as substrate
T4 sequence (Q9BY41 whole entry): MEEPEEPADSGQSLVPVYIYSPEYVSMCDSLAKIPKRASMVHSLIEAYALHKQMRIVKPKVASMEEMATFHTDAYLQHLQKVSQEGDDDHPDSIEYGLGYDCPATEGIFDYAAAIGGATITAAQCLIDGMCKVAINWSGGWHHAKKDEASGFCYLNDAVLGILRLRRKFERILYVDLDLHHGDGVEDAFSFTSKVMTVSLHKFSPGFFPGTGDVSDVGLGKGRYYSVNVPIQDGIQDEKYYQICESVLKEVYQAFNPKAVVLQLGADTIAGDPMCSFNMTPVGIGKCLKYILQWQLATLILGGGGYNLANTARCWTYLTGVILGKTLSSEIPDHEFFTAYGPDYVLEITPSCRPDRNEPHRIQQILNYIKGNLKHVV

[13] = target: Histone deacetylase 1 (Homo sapiens, UniProt Q13547); assay: Inhibition of human recombinant HDAC1 expressed in baculovirus/sf9 cells using RHKKAc as substrate
[14] = target: Histone deacetylase 2 (Homo sapiens, UniProt Q92769); assay: Inhibition of human recombinant HDAC2 expressed in baculovirus/sf9 cells using RHKKAc as substrate
[15] = system: Vero; assay: Cytotoxicity against african green monkey Vero cells at 25 uM; type: cell-based; conditions: chlorocebus sabaeus
[16] = Cytotoxicity against human SH-SY5Y cells at 25 uM; type: cell-based
[17] = system: PC-12; assay: Cytotoxicity against rat PC12 cells at 25 uM; type: cell-based; conditions: pc-12, 25 µM
[18] = target: Poly [ADP-ribose] polymerase 1 (Homo sapiens) (UniProt P09874); assay: Inhibition of PARP1 (unknown origin) up to 25 uM
[19] = species on record: Homo sapiens; assay: Selectivity index, ratio of IC50 for human recombinant HDAC1 to IC50 for human recombinant HDAC6
[20] = species on record: Homo sapiens; assay: Selectivity index, ratio of IC50 for human recombinant HDAC8 to IC50 for human recombinant HDAC6

Chain of Histone deacetylase 1 (Q13547 whole entry): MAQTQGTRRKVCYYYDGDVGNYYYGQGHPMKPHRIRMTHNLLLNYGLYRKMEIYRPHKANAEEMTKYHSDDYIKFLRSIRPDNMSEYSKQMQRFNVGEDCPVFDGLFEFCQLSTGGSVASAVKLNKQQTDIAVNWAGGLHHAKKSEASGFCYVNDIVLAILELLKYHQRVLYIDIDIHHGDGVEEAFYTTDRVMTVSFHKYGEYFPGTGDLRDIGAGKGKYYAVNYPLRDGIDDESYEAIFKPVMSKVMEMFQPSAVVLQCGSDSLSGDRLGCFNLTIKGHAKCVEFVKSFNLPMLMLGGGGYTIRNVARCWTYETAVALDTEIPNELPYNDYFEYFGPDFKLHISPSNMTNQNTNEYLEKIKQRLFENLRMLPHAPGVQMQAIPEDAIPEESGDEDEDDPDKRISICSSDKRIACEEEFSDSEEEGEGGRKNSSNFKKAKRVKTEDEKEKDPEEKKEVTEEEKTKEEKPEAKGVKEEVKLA
T1 sequence (P05067 whole entry): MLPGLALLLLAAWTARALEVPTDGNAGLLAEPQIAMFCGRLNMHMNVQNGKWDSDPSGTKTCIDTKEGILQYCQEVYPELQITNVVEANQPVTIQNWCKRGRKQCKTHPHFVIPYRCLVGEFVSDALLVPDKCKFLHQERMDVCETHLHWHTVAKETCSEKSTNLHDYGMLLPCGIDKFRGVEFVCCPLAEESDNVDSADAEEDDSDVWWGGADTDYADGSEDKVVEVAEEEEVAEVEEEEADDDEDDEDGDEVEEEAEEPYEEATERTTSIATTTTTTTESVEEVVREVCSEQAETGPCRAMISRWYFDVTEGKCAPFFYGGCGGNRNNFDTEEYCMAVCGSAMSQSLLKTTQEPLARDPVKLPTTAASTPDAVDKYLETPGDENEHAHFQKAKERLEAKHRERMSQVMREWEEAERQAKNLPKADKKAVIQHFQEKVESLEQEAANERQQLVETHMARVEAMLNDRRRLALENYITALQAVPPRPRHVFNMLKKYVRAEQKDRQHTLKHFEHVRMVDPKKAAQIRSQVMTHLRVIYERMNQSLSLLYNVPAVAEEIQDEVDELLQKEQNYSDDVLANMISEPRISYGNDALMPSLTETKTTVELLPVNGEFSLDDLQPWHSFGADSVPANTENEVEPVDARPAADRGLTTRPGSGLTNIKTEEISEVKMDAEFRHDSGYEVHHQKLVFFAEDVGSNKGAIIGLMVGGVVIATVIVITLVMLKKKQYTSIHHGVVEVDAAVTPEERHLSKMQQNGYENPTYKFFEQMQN
Chain of Histone deacetylase 2 (Q92769 whole entry): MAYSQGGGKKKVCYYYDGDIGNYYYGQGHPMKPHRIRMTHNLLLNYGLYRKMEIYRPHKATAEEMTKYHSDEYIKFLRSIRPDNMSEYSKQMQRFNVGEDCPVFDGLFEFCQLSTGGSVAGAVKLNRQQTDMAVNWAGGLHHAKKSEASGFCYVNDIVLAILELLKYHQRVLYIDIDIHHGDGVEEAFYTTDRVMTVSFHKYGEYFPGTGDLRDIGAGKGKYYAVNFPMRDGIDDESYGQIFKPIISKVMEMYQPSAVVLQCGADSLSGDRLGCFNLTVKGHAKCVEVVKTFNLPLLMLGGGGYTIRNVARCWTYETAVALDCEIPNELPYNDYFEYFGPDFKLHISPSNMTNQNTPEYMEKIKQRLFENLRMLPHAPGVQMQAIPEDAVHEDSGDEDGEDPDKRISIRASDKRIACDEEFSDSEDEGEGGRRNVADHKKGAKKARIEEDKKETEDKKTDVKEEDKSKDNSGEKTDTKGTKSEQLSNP
Chain of Poly [ADP-ribose] polymerase 1 (Homo sapiens) (P09874 whole entry): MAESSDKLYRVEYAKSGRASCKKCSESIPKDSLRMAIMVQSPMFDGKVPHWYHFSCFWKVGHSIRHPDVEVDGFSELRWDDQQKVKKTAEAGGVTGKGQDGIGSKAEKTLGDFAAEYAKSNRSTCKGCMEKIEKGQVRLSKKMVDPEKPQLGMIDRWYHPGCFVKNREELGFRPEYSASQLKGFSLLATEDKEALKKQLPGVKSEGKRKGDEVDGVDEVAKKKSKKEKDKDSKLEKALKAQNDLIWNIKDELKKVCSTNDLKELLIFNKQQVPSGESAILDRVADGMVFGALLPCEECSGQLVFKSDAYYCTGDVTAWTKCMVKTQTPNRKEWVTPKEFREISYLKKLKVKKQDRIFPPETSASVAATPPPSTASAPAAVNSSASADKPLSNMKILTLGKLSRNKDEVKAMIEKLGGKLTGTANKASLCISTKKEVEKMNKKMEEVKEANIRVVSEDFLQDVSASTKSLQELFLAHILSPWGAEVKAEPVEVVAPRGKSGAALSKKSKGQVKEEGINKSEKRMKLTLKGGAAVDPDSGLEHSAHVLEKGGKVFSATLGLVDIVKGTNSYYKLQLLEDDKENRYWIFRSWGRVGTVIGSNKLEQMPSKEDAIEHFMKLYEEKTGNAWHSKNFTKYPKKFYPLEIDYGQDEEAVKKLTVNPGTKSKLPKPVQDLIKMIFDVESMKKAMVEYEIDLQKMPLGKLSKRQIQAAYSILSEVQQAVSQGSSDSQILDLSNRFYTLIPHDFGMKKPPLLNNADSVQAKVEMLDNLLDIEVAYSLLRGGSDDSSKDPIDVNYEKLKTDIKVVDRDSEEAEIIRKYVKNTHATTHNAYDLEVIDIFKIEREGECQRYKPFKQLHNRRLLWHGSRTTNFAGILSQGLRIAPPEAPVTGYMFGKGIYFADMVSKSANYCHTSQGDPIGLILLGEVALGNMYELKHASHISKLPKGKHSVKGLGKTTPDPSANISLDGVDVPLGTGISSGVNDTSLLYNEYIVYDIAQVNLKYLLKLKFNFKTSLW

| IC50 [2] [µM] | Compound | IC50 [1] [µM] | Activity [3] | EC50 [4] [µM] | EC50 [5] [µM] | EC50 [6] [µM] | Activity [7] | EC50 [8] [µM] | Activity [9] | IC50 [10] [µM] | IC50 [11] [nM] | IC50 [12] [nM] | IC50 [13] [nM] | IC50 [14] [µM] | Activity [15] | Activity [16] | Activity [17] | inhibition [18] | Ratio IC50 [19] | Ratio IC50 [20] |
| --- | --- | --- | --- | --- | --- | --- | --- | --- | --- | --- | --- | --- | --- | --- | --- | --- | --- | --- | --- | --- |
| 7.7 | O=C(O)CN(CCN(CC(=O)O)CC(=O)O)CC(=O)O [EDETIC ACID] | 28.4 | – | – | – | – | – | – | – | – | – | – | – | – | – | – | – | – | – | – |
| – | CCc1nc2cc(/C=C/C(=O)NO)ccc2c(=O)n1CCCc1ccccc1 | – | Dose-dependent effect | 10 | 11.7 | 7 | Active | 6.6 | Active | 5.59 | 33 | 1330 | 3200 | > 12 | Non-toxic | Non-toxic | Non-toxic | inactive | – | – |
| – | O=C(/C=C/c1ccc2c(=O)n(CCc3ccccc3)c(C3CC3)nc2c1)NO | – | – | > 25 | > 25 | – | Active | 10.5 | Active | – | 41 | – | 433 | – | Non-toxic | Non-toxic | Non-toxic | – | – | – |
| – | CCc1nc2cc(/C=C/C(=O)NO)c(F)cc2c(=O)n1CCc1ccccc1 | – | – | – | – | – | – | – | – | 3.74 | 14 | 1400 | 3000 | > 10 | Non-toxic | Non-toxic | Non-toxic | – | 214 | 100 |
| – | Cc1nc2cc(/C=C/C(=O)NO)ccc2c(=O)n1Cc1ccccc1 | > 50 | – | 8.2 | > 25 | 8.2 | Active | 20.9 | Active | 2.44 | 24 | 1270 | 1450 | 4 | Non-toxic | Non-toxic | Non-toxic | – | – | – |
| – | CC(C)c1nc2cc(/C=C/C(=O)NO)ccc2c(=O)n1CCc1ccccc1 | – | – | 6.7 | 15 | 5.3 | Active | 11.5 | Active | – | 13 | – | 389 | – | Non-toxic | Non-toxic | Non-toxic | – | – | – |
| – | Cc1nc2cc(/C=C/C(=O)NO)ccc2c(=O)n1CCc1c[nH]c2ccccc12 | > 50 | – | – | – | – | – | – | – | 1.21 | 15 | 1590 | 758 | 2.21 | Non-toxic | Non-toxic | Non-toxic | – | 51 | 106 |
